Source: patent publication US20200206257A1, “HOMOGENEOUS POLY[…]-B4, DERIVED FROM HERBA EPHEDRA, PREPARATION METHOD AND MEDICAL USE THEREOF” (priority 2018, published 2020)
“And” between values parts separate entries of the source, which are not always exact repeats. Identical values can stand only once.

Columns and labels:
[1] = system: LPS-induced acute lung injury in mice; experiment: LPS-induced acute lung injury in mice, inflammatory factors in lung tissue homogenate; type: in vivo; details: 50 mg/kg intraperitoneal, 7 days, left lung homogenate, mean±SD
[2] = system: Escherichia coli-induced pneumonia in mice; experiment: Escherichia coli-induced pneumonia in mice, inflammatory factors in lung tissue homogenate; type: in vivo; details: 100 mg/kg intragastric (positive control), 7 days, left lung homogenate, mean±SD

Row | Compound | IL-6 [1] [pg/mL] | IL-8 [1] [pg/mL] | TNF-α [1] [pg/mL] | Tp (Total protein) [1] [µg/mL] | IL-6 [2] [pg/mL] | IL-8 [2] [pg/mL] | TNF-α [2] [pg/mL] | Tp [2] | IL-6 ([2]; listed as gentamicin sulfate) | IL-8 ([2]; listed as gentamicin sulfate) | TNF-α ([2]; listed as gentamicin sulfate)
1 | C[C@@H]1C[C@H]2[C@@H]3CCC4=CC(=O)C=C[C@]4(C)[C@@]3(F)[C@@H](O)C[C@]2(C)[C@@]1(O)C(=O)CO [Dexamethasone, dexamethasone] | 255.18 ± 35.63 | 52.7 ± 9.99 | 861.41 ± 71.04 | 202.40 ± 16.54 |  |  |  |  |  |  | 
2 | gentamicin sulfate [Gentamycin Sulfate] |  |  |  |  | 285.16 ± 32.71 | 49.36 ± 10.01 | 834.10 ± 70.10 | significantly decreased and 197.05 ± 14.20 μg/mL | significantly decreased | significantly decreased | significantly decreased
